Patent publication US20240115557A1, “INHIBITORS OF RNA-GUIDED NUCLEASES AND USES THEREOF” (The Brigham and Women's Hospital, Inc., priority 2022, published 2024)

Experiments:
SpCas9 [1] = target: T1, SpCas9 (Streptococcus pyogenes serotype M1, UniProt Q99ZW2); assay: HiBiT knock-in assay, SpCas9, HEK293T cells; type: cell-based; details: for Activity in HiBiT knock-in assay: result in words, relative to BRD7586
Source text: Primary and secondary screening. The primary screen assayed a selection of unique chemical scaffolds derived from commercially available compounds and known bioactive molecular libraries (Table 7). Auto-fluorescent compounds were removed by a counter screen. Overall, the CAA was used to assay 122,409 small molecules with over 2,500 unique chemical scaffolds (FIG. 64F, Table 7). Of these compounds, 547 were selected as hits (Z score >3 in both replicates) for testing in orthogonal cell-based secondary assays. Hits were tested in duplicate in an eGFP disruption assay, wherein U2OS.eGFP.PEST cells^33 transfected with SpCas9 plasmid and eGFP-targeting gRNA plasmid were incubated with 20 μM of the compounds. In this assay, any compound that inhibited SpCas9 would rescue the loss of eGFP fluorescence. Here, toxic and auto-fluorescent compounds with a high GFP signal in cells were removed as false positives. […] Next, Applicants tested the 15 compounds in a luminescence-based gain-of-signal HiBiT knock-in assay, which involves SpCas9-mediated homology-directed tagging of GAPDH with a short peptide that luminesces upon complementation with a subunit derived from nanoluciferase.^34 Complementarily, the eGFP-disruption assay is fluorescence-based and involves error-prone DNA repair. As a counter-screen to remove false positives caused by cell death (viability <80%), the cell viability was measured after incubation.
Approximately 400,000 HEK293T cells were nucleofected with 400 ng of SpCas9 plasmid, 40 ng of GAPDH-targeting gRNA plasmid, and 40 pmol of single-strand oligodeoxynucleotide (ssODN) using SF Cell Line 4D-Nucleofector X Kit (Lonza) following the pulse program of DS-150. For RNP-based genome editing, 10 pmol of Cas9 and 12 pmol of gRNA were mixed and incubated for 5 min. Then, 20 pmol of ssODN was added. Cells were nucleofected with the resulting mixture using the same pulse program. Cells were then transferred to a 96-well plate at the density of 35,000 cells per well, and incubated with indicated amount of compounds for 24 h. Cell viability was measured using PrestoBlue reagent (Thermo) with a SpectraMax M5 (Molecular Devices) at the excitation and emission wavelength of 544 nm and 590 nm, respectively. Next, luminescence measurement was performed using the Nano-Glo HiBiT Lytic Detection System (Promega) according to the manufacturer's protocol with an EnVision Multilabel Plate Reader (PerkinElmer) at the integration time of 0.5 s per well. The resulting luminescence signals were normalized based on the cell viability.^34

SpCas9 [2] = target: T1, SpCas9; assay: eGFP disruption assay, SpCas9, U2OS.eGFP.PEST cells; type: cell-based; details: for Activity in eGFP-disruption assay: result in words, relative to BRD7586; for Normalized Z rep1 / Z score Rep1 / % GFP+, Rep 1: replicate 1; for SpCas9 eGFP disruption Rep1: replicate 1, raw readout; for Normalized Z rep2 / Z socre Rep2 / % GFP+, Rep 2: replicate 2; for SpCas9 eGFP disruption Rep2: replicate 2, raw readout
How it was run: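 Rescue of eGFP signal lost through Cas9-induced NHEJ indels serves as the inhibition read-out, after 24 h compound exposure (20 μM for hits, variable for dose-response). Editing was delivered by nucleofection into U2OS.eGFP.PEST cells as SpCas9/gRNA plasmids (300/30 ng) or RNP (10/12 pmol). Toxic and autofluorescent compounds were excluded.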

SpCas9 [3] = target: T1, SpCas9; assay: Strand displacement assay (SDA) / cumulative activity assay (CAA), SpCas9 primary screen; type: biochemical; details: Primary Screen (150 min); for Normalized Z score 1: replicate 1; for Normalized Z score 2: replicate 2
How it was run: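 SpCas9:gRNA RNP in 20 mM Tris-HCl pH 7.5, 100 mM KCl, 5 mM MgCl2 was used at 10 nM (2× stock) with Alexa Fluor 647-labelled substrate and excess quencher strand (1 nM and 5 nM, 2× stocks). Fluorescence was read after 2.5 h at 37 °C, where cleavage lets the quencher strand anneal.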

[4] = Cas9 = lower control, Ctrl = upper control
[5] = normalized, lower control about 0, upper control about 1

T1 sequence (Q99ZW2 whole entry): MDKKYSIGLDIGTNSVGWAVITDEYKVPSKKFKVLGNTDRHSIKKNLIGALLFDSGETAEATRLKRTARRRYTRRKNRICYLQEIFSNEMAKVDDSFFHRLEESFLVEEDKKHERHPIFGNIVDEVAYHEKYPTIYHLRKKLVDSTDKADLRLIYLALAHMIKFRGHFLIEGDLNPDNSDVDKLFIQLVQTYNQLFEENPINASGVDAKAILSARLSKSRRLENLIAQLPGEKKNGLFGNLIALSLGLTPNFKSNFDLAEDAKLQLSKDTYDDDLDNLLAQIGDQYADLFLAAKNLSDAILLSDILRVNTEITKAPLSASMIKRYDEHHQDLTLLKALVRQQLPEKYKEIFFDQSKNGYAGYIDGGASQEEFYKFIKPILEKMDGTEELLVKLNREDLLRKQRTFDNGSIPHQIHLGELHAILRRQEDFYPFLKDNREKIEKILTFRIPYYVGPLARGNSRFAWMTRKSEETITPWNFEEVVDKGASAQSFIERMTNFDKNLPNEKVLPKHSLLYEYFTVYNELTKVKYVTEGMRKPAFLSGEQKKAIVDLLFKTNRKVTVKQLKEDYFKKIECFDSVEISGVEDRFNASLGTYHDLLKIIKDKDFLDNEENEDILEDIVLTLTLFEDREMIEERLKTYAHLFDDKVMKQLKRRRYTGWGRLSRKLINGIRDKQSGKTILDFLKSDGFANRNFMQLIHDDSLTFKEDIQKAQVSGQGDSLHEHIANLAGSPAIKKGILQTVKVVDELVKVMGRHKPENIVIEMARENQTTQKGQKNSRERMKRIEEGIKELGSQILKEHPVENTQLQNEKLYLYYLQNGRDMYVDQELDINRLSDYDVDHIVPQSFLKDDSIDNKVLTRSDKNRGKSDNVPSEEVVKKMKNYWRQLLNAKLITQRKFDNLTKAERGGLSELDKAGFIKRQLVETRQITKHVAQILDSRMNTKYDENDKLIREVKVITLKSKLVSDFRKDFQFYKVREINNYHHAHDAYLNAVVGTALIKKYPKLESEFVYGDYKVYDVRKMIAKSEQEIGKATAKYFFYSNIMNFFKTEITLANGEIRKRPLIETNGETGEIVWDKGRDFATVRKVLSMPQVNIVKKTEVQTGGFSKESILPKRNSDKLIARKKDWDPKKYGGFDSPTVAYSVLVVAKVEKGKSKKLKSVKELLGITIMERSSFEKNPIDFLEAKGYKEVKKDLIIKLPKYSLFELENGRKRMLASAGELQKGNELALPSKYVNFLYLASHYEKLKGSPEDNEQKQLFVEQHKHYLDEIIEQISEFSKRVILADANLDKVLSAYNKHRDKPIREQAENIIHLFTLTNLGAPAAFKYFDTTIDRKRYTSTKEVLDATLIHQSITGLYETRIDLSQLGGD

Row | Structure (SMILES) | Hibit assay-% inhibition (SpCas9 [1]) [%] | eGFP disruption-% inhibition (SpCas9 [2]) [%] | Z score Rep1 (SpCas9 [2]) | Z socre Rep2 (SpCas9 [2]) | SpCas9 eGFP disruption Rep1 (SpCas9 [2]; [4]) | Normalized Z rep1 (SpCas9 [2]; [5]) | SpCas9 eGFP disruption Rep2 (SpCas9 [2]; [4]) | Normalized Z rep2 (SpCas9 [2]; [5]) | Average Normalized Z score (SpCas9 [3]) | avg z score primary (SpCas9 [3]) | Normalized Z score 1 (SpCas9 [3]) | Normalized Z score 2 (SpCas9 [3]) | % GFP+, Rep 1 (SpCas9 [2]; eGFP assay) [%] | Z score Rep1 (SpCas9 [2]; eGFP assay) | % GFP+, Rep 2 (SpCas9 [2]; eGFP assay) [%] | further results
1 | O=C(CCSc1ccc(Cl)cc1)Nc1nc(-c2ccc(Br)cc2)cs1 [BRD0033] |  |  |  |  |  |  |  |  |  |  |  |  |  |  |  | Activity in HiBiT knock-in assay (SpCas9 [1]): inactive; Activity in eGFP-disruption assay (SpCas9 [2]): inactive
2 | COc1ccc(Cc2nn3c(-c4cccnc4)nnc3s2)cc1OC [Compound D727-0069] | 8.56 | 24.03 | −2.26 | −1.55 |  |  |  |  |  |  |  |  |  |  |  | Normalized Z rep1 (SpCas9 [2]): −0.31; SpCas9 eGFP disruption Rep1 (SpCas9 [2]): 59.543; Normalized Z rep2 (SpCas9 [2]): −0.17; SpCas9 eGFP disruption Rep2 (SpCas9 [2]): 58.398
3 | COc1ccc(Cc2nnc3sc(Cc4ccc(OC)c(OC)c4)nn23)cc1 [Compound D727-0165] | 22.01 | 25.03 | 1.09 | −0.43 | 70.62 | 0.15 | 61.783 | −0.05 |  |  |  |  |  |  |  | 
4 | c1ccc(-c2nnc3sc(-c4cc5ccccc5o4)nn23)nc1 [Compound D727-0535] | 18.11 | 18.61 | −0.99 | −2.07 |  |  |  |  |  |  |  |  |  |  |  | Normalized Z rep1 (SpCas9 [2]): −0.14; SpCas9 eGFP disruption Rep1 (SpCas9 [2]): 63.743; Normalized Z rep2 (SpCas9 [2]): −0.22; SpCas9 eGFP disruption Rep2 (SpCas9 [2]): 56.828
5 | O=C(CCSc1ccc(Cl)cc1)Nc1nc(-c2ccncc2)cs1 [Compound F2537-0908] |  |  |  |  |  |  |  |  |  |  |  |  |  |  |  | Activity in HiBiT knock-in assay (SpCas9 [1]): significantly lower inhibitory activity; Activity in eGFP-disruption assay (SpCas9 [2]): significantly lower inhibitory activity
6 | O=C(CCS(=O)(=O)c1ccccc1)Nc1nc(-c2ccncc2)cs1 [Compound G786-1264] | 72.63 | 41.72 | 3.83 | 9.69 | 82.717 | 0.37 | 83.951 | 0.42 | 0.06 | 5.95 | 0.06 | 0.06 | 82.72 | 3.83 | 83.95 | 
7 | O=C(CCS(=O)(=O)c1ccc(Cl)cc1)Nc1nc(-c2ccccn2)cs1 [Compound G786-1324] | 94.5 | 32.94 | 3.12 | 4.86 | 81.427 | 0.30 | 79.939 | 0.21 | 0.05 | 4.44 | 0.05 | 0.04 | 81.43 | 3.12 | 79.94 | 
8 | O=C(CCS(=O)(=O)c1ccc(Cl)cc1)Nc1nc(-c2ccncc2)cs1 [Compound G786-1325] | 97.09 | 56.65 | 5.65 | 12.44 | 86.012 | 0.54 | 86.243 | 0.54 | 0.04 | 4.35 | 0.05 | 0.04 | 86.01 | 5.65 | 86.24 | 
9 | Cc1ccccc1C(=O)Nc1nc2ccc(S(N)(=O)=O)cc2s1 [Compound G786-1547] | 4.3 | 42.41 | 3.88 | 9.85 | 82.802 | 0.37 | 84.086 | 0.43 | 0.04 | 3.81 | 0.04 | 0.04 | 82.8 | 3.88 | 84.09 | 
